# Reference: article PMC4907642 (Journal of medicinal chemistry, 2015)
# Columns and labels:
# [1] = target: EML4-ALK G1202R transformed Ba/F3 cells (Homo sapiens, UniProt Q9HC35+Q9UM73, G1202R); conditions: 1 µM, result in words
# panel of 456 kinases = conditions: 1 µM
# Sequence of EML4-ALK G1202R transformed Ba/F3 cells (Q9UM73 1058-1620 G1202R limits assumed, one chain of several): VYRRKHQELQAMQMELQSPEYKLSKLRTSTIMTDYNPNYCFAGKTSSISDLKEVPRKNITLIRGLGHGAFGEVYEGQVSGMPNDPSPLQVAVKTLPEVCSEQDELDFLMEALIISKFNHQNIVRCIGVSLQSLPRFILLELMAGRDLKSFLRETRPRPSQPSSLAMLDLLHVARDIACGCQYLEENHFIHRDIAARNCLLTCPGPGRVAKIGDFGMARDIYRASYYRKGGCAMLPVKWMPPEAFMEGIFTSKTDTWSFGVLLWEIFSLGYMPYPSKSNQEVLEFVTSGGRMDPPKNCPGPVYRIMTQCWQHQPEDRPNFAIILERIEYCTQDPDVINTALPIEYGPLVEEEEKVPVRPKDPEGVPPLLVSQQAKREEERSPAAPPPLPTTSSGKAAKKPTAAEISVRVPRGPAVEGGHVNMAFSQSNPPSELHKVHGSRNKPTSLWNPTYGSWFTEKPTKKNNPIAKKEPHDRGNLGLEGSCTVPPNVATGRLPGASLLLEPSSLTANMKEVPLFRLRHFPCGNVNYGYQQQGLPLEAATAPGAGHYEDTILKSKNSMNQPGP
Structure (SMILES),single point inhibition of the G1202R mutant [1],KINOMEscan interactions mapped (panel of 456 kinases)
"CCc1cc2c(cc1-c1cnn(C)c1)C(C)(C)c1[nH]c3cc(C#N)ccc3c1C2=O [Compound 7, 9-ethyl-6,6-dimethyl-8-(1-methyl-1H-pyrazol-4-yl)-11-oxo-6,11-dihydro-5H-benzo[b]carbazole-3-carbonitrile]",quite potent,–
"CCc1cc2c(cc1-c1cn[nH]c1)C(C)(C)c1[nH]c3cc(C#N)ccc3c1C2=O [Compound 8, 9-ethyl-6,6-dimethyl-11-oxo-8-(1H-pyrazol-4-yl)-6,11-dihydro-5H-benzo[b]carbazole-3-carbonitrile]",quite potent,–
"CCc1cc2c(cc1-c1cc[nH]n1)C(C)(C)c1[nH]c3cc(C#N)ccc3c1C2=O [Compound 9, 9-ethyl-6,6-dimethyl-11-oxo-8-(1H-pyrazol-3-yl)-6,11-dihydro-5H-benzo[b]carbazole-3-carbonitrile]",quite potent,–
"CCc1cc2c(cc1-c1ccoc1)C(C)(C)c1[nH]c3cc(C#N)ccc3c1C2=O [Compound 11, 9-ethyl-8-(furan-3-yl)-6,6-dimethyl-11-oxo-6,11-dihydro-5H-benzo[b]carbazole-3-carbonitrile]",much less inhibitory activity,–
"CCc1cc2c(cc1-c1cccs1)C(C)(C)c1[nH]c3cc(C#N)ccc3c1C2=O [Compound 12, 9-ethyl-6,6-dimethyl-11-oxo-8-(thiophen-2-yl)-6,11-dihydro-5H-benzo[b]carbazole-3-carbonitrile]",much less inhibitory activity,–
"CCc1cc2c(cc1N1CCC(N(C)C)CC1)C(C)(C)c1[nH]c3cc(C#N)ccc3c1C2=O [Compound 17, 8-(4-(dimethylamino)piperidin-1-yl)-9-ethyl-6,6-dimethyl-11-oxo-6,11-dihydro-5H-benzo[b]carbazole-3-carbonitrile]",potent inhibition,–
"CCc1cc2c(cc1N1CCN(C)CC1)C(C)(C)c1[nH]c3cc(C#N)ccc3c1C2=O [Compound 19, 9-ethyl-6,6-dimethyl-8-(4-methylpiperazin-1-yl)-11-oxo-6,11-dihydro-5H-benzo[b]carbazole-3-carbonitrile]",potent inhibition,–
"CCc1cc2c(cc1C#N)C(C)(C)c1[nH]c3cc(C#N)ccc3c1C2=O [Compound 21, 9-ethyl-6,6-dimethyl-11-oxo-6,11-dihydro-5H-benzo[b]carbazole-3,8-dicarbonitrile]",much less potent,–
"CCc1cc2c(cc1[C@@H](O)CO)C(C)(C)c1[nH]c3cc(C#N)ccc3c1C2=O [Compound 22, (R)-8-(1,2-dihydroxyethyl)-9-ethyl-6,6-dimethyl-11-oxo-6,11-dihydro-5H-benzo[b]carbazole-3-carbonitrile]",much less potent,–
"CCc1cc2c(cc1[C@H](O)CO)C(C)(C)c1[nH]c3cc(C#N)ccc3c1C2=O [Compound 23, (S)-8-(1,2-dihydroxyethyl)-9-ethyl-6,6-dimethyl-11-oxo-6,11-dihydro-5H-benzo[b]carbazole-3-carbonitrile]",much less potent,–
"CCc1cc2c(cc1C(=O)O)C(C)(C)c1[nH]c3cc(C#N)ccc3c1C2=O [Compound 24, 3-cyano-9-ethyl-6,6-dimethyl-11-oxo-6,11-dihydro-5H-benzo[b]carbazole-8-carboxylic acid]",much less potent,–
"CCc1cc2c(cc1/C=C/CN1CCOCC1)C(C)(C)c1[nH]c3cc(C#N)ccc3c1C2=O [Compound 25, (E)-9-ethyl-6,6-dimethyl-8-(3-morpholinoprop-1-en-1-yl)-11-oxo-6,11-dihydro-5H-benzo[b]carbazole-3-carbonitrile]",no activity,–
"CCc1cc2c(cc1-c1cnn(CCCN(C)C)c1)C(C)(C)c1[nH]c3cc(C#N)ccc3c1C2=O [Compound 32, 8-(1-(3-(dimethylamino)propyl)-1H-pyrazol-4-yl)-9-ethyl-6,6-dimethyl-11-oxo-6,11-dihydro-5H-benzo[b]carbazole-3-carbonitrile]",–,39
"CCc1cc2c(cc1-c1cnn(C(C)(C)C(=O)N(C)C)c1)C(C)(C)c1[nH]c3cc(C#N)ccc3c1C2=O [Compound 35, 2-(4-(3-cyano-9-ethyl-6,6-dimethyl-11-oxo-6,11-dihydro-5H-benzo[b]carbazol-8-yl)-1H-pyrazol-1-yl)-N,N,2-trime-thylpropanamide]",quite potent,–
"CCc1cc2c(cc1-c1cnn(C(=O)N(C)C)c1)C(C)(C)c1[nH]c3cc(C#N)ccc3c1C2=O [Compound 36, 4-(3-cyano-9-ethyl-6,6-dimethyl-11-oxo-6,11-dihydro-5H-benzo[b]carbazol-8-yl)-N,N-dimethyl-1H-pyrazole-1-carboxamide]",quite potent,–
